Assay results from ChEMBL document CHEMBL4825679, “Water-Soluble Heliomycin Derivatives to Target i-Motif DNA” (J Nat Prod, 2021).
Active and inactive are the calls of the source. The rule behind the calls is not given here.

What was measured:
HeLa = assay: cells; details: Homo sapiens, 72 h
Description: Antiproliferative activity against human HeLa cells assessed as growth inhibition after 72 hrs by MTT assay

Homo sapiens [1] = species: Homo sapiens; assay: Binding affinity to ILPR DNA (unknown origin) assessed as stabilization of DNA by measuring change in melting temperature at 1 uM by FRET analysis
HMEC-1 = assay: Cytotoxicity against human HMEC-1 cells assessed as growth inhibition after 72 hrs by MTT assay; assay type: cell-based; details: HMEC-1, 72 h
Homo sapiens [2] = species: Homo sapiens; assay: Binding affinity to HIF1A DNA (unknown origin) assessed as stabilization of DNA by measuring change in melting temperature at 1 uM by FRET analysis
[3] = Binding affinity to NASG DNA (unknown origin) assessed as stabilization of DNA by measuring change in melting temperature at 1 uM by FRET analysis
Homo sapiens [4] = species: Homo sapiens; assay: Binding affinity to DAP DNA (unknown origin) assessed as stabilization of DNA by measuring change in melting temperature at 1 uM by FRET analysis
DNA = assay: Binding affinity to double strand DNA (unknown origin) assessed as stabilization of DNA by measuring change in melting temperature at 1 uM by FRET analysis; assay type: nucleic-acid assay; details: Homo sapiens
Homo sapiens [5] = species: Homo sapiens; assay: Binding affinity to human TeloC DNA assessed as stabilization of DNA by measuring change in melting temperature at 1 uM by FRET analysis
CCRF-CEM = assay: cells; details: Homo sapiens, 72 h
Description: Antiproliferative activity against human CEM cells assessed as growth inhibition after 72 hrs by MTT assay

Quadruplex DNA = assay: Binding affinity to human G-quadruplex TeloG DNA assessed as stabilization of DNA by measuring change in melting temperature at 1 uM by FRET analysis; assay type: nucleic-acid assay
Homo sapiens [6] = species: Homo sapiens; assay: Binding affinity to cMYC DNA (unknown origin) assessed as stabilization of DNA by measuring change in melting temperature at 1 uM by FRET analysis
L1210 = assay: cells; details: Mus musculus, L1210, 72 h
Description: Antiproliferative activity against mouse L1210 cells assessed as growth inhibition after 72 hrs by MTT assay

Row | SMILES | IC50 (HeLa) [nM] | ΔTm (Homo sapiens [1]) [°C] | IC50 (HMEC-1) [nM] | ΔTm (Homo sapiens [2]) [°C] | ΔTm [3] [°C] | Activity (Homo sapiens [4]) | ΔTm (DNA) [°C] | Activity (Homo sapiens [5]) | IC50 (CCRF-CEM) [nM] | ΔTm (Quadruplex DNA) [°C] | ΔTm (Homo sapiens [6]) [°C] | IC50 (L1210) [nM]
1 | COc1cc2c3c4c(c(NCCN)cc(C)c14)C(=O)c1c(O)cc(O)c(c1-3)C(=O)C2(C)C | 800 | 17 | 700 | 10 | 4 | inactive | 6 | inactive | 800 | 5 | 25 | 800
2 | Cc1cc(NCCN)c2c3c4c(cc(O)c13)C(C)(C)C(=O)c1c(O)cc(O)c(c1-4)C2=O | 1600 | – | 1200 | – | – | – | – | – | 2100 | – | – | 200
3 | COc1cccc2c1C(=O)c1c(O)c3c(c(O)c1C2=O)C[C@@](O)(C(=O)CO)C[C@@H]3O[C@H]1C[C@H](N)[C@H](O)[C@H](C)O1 [DOXORUBICIN] | – | – | 100 | – | – | – | – | – | – | – | – | –
